Measurements as given in patent US5212171A, “Pesticidal heterocyclic compounds” (priority 1990, dated 1993).

Assays:
[1] = system: Trialeurodes vaporariorum; test: whole plant or invertebrate; assay type: in vivo, Trialeurodes vaporariorum (greenhouse whitefly); settings: 144 h, initial test concentration of 0.1% w (1000 ppm), 6 days, read-out: mortality grade T.v.
Description: (§1) Insecticidal activity of compounds of general formula I was assessed against the following pests: […]
Trialeurodes vaporariorum (greenhouse whitefly)
(§2) The test methods employed for each species appear below. In each test, unless otherwise stated, solutions or suspensions of test compound were made up over a range of concentrations in water (initially 0.1% w) containing 10%w acetone and 0.025% w "TRITON X-100" (trade mark) surface active agent (the condensation product of ethylene oxide with an alkyl phenol). These solutions were sprayed at a rate equivalent to 340 liters per hectare (3.4×10^-5 m^3 /m^2) onto Petri dishes containing either test species per se or diet onto which test species were subsequently introduced, as indicated. In some assays leaf discs infested with test species were sprayed whilst other assays involved the spraying of plants which were infested subsequently with test species after the spray solution had dried. The tests were all conducted under normal insectary conditions (23° C.±2° C., fluctuating humidity and light).
Mortality assessments were made as indicated below, in terms of percentage mortality figures. In each test a LC50 (the dosage of active material required to kill half of the test species) for the compound was calculated from the mortality figures and compared with the corresponding LC50 for a standard insecticide, ethyl parathion, in the same test. The results are expressed as toxicity indices thus: [formula] (i) Spodoptera littoralis (7 day)(Sl 7D) Test solutions were sprayed as indicated above onto Petri dishes containing a nutritious diet for Egyptian cotton leafworm larvae. When the spray deposit had dried, each dish was infested with ten 2nd instar larvae. Mortality assessments were made 7 days after spraying.
(iii) Trialeurodes vaporariorum (Tv)
French bean plants (Phaseolus vulgaris) with two fully expanded leaves were placed in a breeding culture of T.vaporariorum, also on French bean plants, which were then disturbed to ensure resettlement on the introduced plants. During the subsequent 24 hour period, eggs were deposited and kept at 27° C., with 14 hours photoperiod. All adult whiteflies were then carefully removed, leaving egg samples of a known age. After eight days the majority of eggs had hatched. Leaf discs containing the newly hatched nymphs were then cut from the leaves and transferred to moist filter paper. The discs were examined under a low-powered microscope to determine the exact number of 1st instar nymphs per disc and to remove any unhatched eggs. On average, 70-100 nymphs were found per disc. The discs were transferred into Petri dishes and sprayed with test solutions as described above. After 6 days percentage mortalities were assessed.

Tetranychus urticae = test: Acaricidal activity (mite life cycle), Tetranychus urticae; assay type: in vivo, Tetranychus urticae (glasshouse red spider mite); settings: larvae on leaf discs sprayed at 340 liters per hectare; emergence of adults after 7 days
Description: Acaricidal activity of some compounds of formula I was assessed, employing adult female glasshouse red spider mites, Tetranychus urticae (T.u.), by the following procedure.
2 cm diameter leaf discs cut from the leaves of French bean plants were placed, underside uppermost, on 5.5 cm diameter filter papers, kept moist by a cotton wool wick dipped in water.
Each leaf disc was infested with 25 to 30 adult female mites which were removed after 6 hours, leaving bout 50 eggs on each disc. Within 5 days the eggs hatched. The freshly emerged larvae on the leaf discs were sprayed with solutions of test compound made up as in Example 156 above, at a rate equivalent to 340 liters per hectare (3.4×10^-5 m^3 /m^2).
The discs were thereafter kept under normal laboratory conditions (23° C.±2° C., fluctuating humidity and 16 hours day length). After 7 days assessment was made of the number of mites emerging as adults.

Spodoptera littoralis = test: whole plant or invertebrate; assay type: in vivo, Spodoptera littoralis (Egyptian cotton leafworm); settings: 168 h, initial test concentration of 0.1% w (1000 ppm), 7 days, read-out: mortality grade S.l.
Description: as §1
Spodoptera littoralis (Egyptian cotton leafworm)
as §2, with “The tests were all conducted under normal insectary conditions (23° C.±2° C., fluctuating humidity and light).” left out
Mortality assessments were made as indicated below, in terms of percentage mortality figures. In each test a LC50 (the dosage of active material required to kill half of the test species) for the compound was calculated from the mortality figures and compared with the corresponding LC50 for a standard insecticide, ethyl parathion, in the same test. The results are expressed as toxicity indices thus: [formula] […]

SMILES | mortality at 1000 µg/mL [1] [%] | LC50 (% active ingredient in spray) (Tetranychus urticae) | mortality at 1000 µg/mL (Spodoptera littoralis) [%]
O=C(NC(=O)c1c(F)cccc1F)Nc1ccc2c(c1)OC(c1ccccc1)O2 (centres unmarked) [Example 125] | 40 to 69 |  | 
O=C(NC(=O)c1c(F)cccc1F)Nc1ccc2c(c1)COC(c1ccc(OC(F)(F)F)cc1)O2 (centres unmarked) [Example 91] | 40 to 69 |  | 
O=C(NC(=O)c1c(F)cccc1F)Nc1ccc2c(c1)OC(c1ccc(C(F)(F)F)cc1)O2 (centres unmarked) [Example 134] |  | 0.09 % active ingredient in spray | 
O=C(NC(=O)c1c(F)cccc1F)Nc1ccc2c(c1)OC(c1cccc(Cl)c1)O2 (centres unmarked) [Example 127] | 40 to 69 |  | 
O=C(NC(=O)c1c(F)cccc1F)Nc1ccc2c(c1)COC(c1ccc(F)cc1F)S2 (centres unmarked) [Example 108] |  |  | 70 to 100
O=C(NC(=O)c1c(F)cccc1F)Nc1ccc2c(c1)OC(c1ccc(Cl)cc1)O2 (centres unmarked) [Example 128] | 40 to 69 |  | 
O=C(NC(=O)c1c(F)cccc1F)Nc1ccc2c(c1)COC(c1ccccc1Br)S2 (centres unmarked) [Example 115] | 70 to 100 |  | 
O=C(NC(=O)c1c(F)cccc1F)Nc1ccc2c(c1)SC(c1ccc(Cl)c(Cl)c1)O2 (centres unmarked) [Example 145] |  | 0.053 % active ingredient in spray | 
O=C(NC(=O)c1c(F)cccc1F)Nc1ccc2c(c1)CSC(c1ccccc1)O2 (centres unmarked) [Example 104] | 40 to 69 |  | 
O=C(NC(=O)c1c(F)cccc1F)Nc1ccc2c(c1)SC(c1ccc(F)cc1F)O2 (centres unmarked) [Example 147] |  | 0.05 % active ingredient in spray | 
O=C(NC(=O)c1c(F)cccc1F)Nc1ccc2c(c1)COC(c1ccc(Cl)c(Cl)c1)O2 (centres unmarked) [Example 83] | 40 to 69 |  | 
O=C(NC(=O)c1c(F)cccc1F)Nc1ccc2c(c1)CSC(c1ccccc1F)O2 (centres unmarked) [Example 96] | 40 to 69 |  | 
CCOC(=O)CC1(c2ccccc2)Oc2ccc(NC(=O)NC(=O)c3c(F)cccc3F)cc2O1 (centres unmarked) [Example 140] | 40 to 69 |  | 
O=C(NC(=O)c1c(F)cccc1F)Nc1ccc2c(c1)COC(c1ccc(C(F)(F)F)cc1Cl)O2 (centres unmarked) [Example 85] |  | 0.00031 % active ingredient in spray | 
O=C(NC(=O)c1c(F)cccc1F)Nc1ccc2c(c1)SC(c1ccccc1F)O2 (centres unmarked) [Example 143] | 40 to 69 |  | 
O=C(NC(=O)c1c(F)cccc1F)Nc1ccc2c(c1)CSC(c1ccc(F)cc1F)O2 (centres unmarked) [Example 100] | 40 to 69 |  | 
O=C(NC(=O)c1c(F)cccc1F)Nc1ccc2c(c1)CSC(c1ccccc1C(F)(F)F)O2 (centres unmarked) [Example 103] | 40 to 69 |  | 
O=C(NC(=O)c1c(F)cccc1F)Nc1ccc2c(c1)COC(c1ccc(Cl)cc1Cl)O2 (centres unmarked) [Example 82] |  | 0.00023 % active ingredient in spray | 

SMILES | mortality at 1000 µg/mL [1] [%] | LC50 (% active ingredient in spray) (Tetranychus urticae) | mortality at 1000 µg/mL (Spodoptera littoralis) [%]
O=C(NC(=O)c1c(F)cccc1F)Nc1ccc2c(c1)COC(c1ccccc1C(F)(F)F)O2 (centres unmarked) [Example 93] |  | 0.00022 % active ingredient in spray | 
O=C(NC(=O)c1c(F)cccc1F)Nc1ccc2c(c1)SC(c1ccc(Cl)cc1Cl)O2 (centres unmarked) [Example 142, N-[[[2-(2,4-dichlorophenyl)-1,3-benzoxathiol-5-yl]amino]carbonyl]-2,6-difluorobenzamide] |  | 0.0015 % active ingredient in spray | 
O=C(NC(=O)c1c(F)cccc1F)Nc1ccc2c(c1)COC(c1ccc(C(F)(F)F)cc1)O2 (centres unmarked) [Example 88] | 40 to 69 |  | 
Cc1ccccc1C1OCc2cc(NC(=O)NC(=O)c3c(F)cccc3F)ccc2S1 (centres unmarked) [Example 116] | 40 to 69 |  | 
O=C(NC(=O)c1c(F)cccc1F)Nc1ccc2c(c1)OC(c1ccccc1Cl)O2 (centres unmarked) [Example 126] | 40 to 69 |  | 
Cc1ccc(C2Oc3ccc(NC(=O)NC(=O)c4c(F)cccc4F)cc3CS2)cc1 (centres unmarked) [Example 102] | 40 to 69 |  | 
O=C(NC(=O)c1c(F)cccc1F)Nc1ccc2c(c1)CSC(c1c(Cl)cccc1Cl)O2 (centres unmarked) [Example 99] | 40 to 69 |  | 
CC1(c2ccc(Cl)c(Cl)c2)Oc2ccc(NC(=O)NC(=O)c3c(F)cccc3F)cc2S1 (centres unmarked) [Example 152] | 40 to 69 |  | 
O=C(NC(=O)c1c(F)cccc1F)Nc1ccc2c(c1)COC(c1ccc(Cl)cc1)O2 (centres unmarked) [Example 81] | 40 to 69 |  | 
O=C(NC(=O)c1c(F)cccc1F)Nc1ccc2c(c1)COC(c1ccccc1Cl)O2 (centres unmarked) [Example 80] | 40 to 69 |  | 
O=C(NC(=O)c1c(F)cccc1F)Nc1ccc2c(c1)COC(c1cccc(Cl)c1Cl)O2 (centres unmarked) [Example 92] |  | 0.085 % active ingredient in spray | 
O=C(NC(=O)c1c(F)cccc1F)Nc1ccc2c(c1)COC(c1c(Cl)cccc1Cl)O2 (centres unmarked) [Example 84] | 40 to 69 | 0.00036 % active ingredient in spray | 
O=C(NC(=O)c1c(F)cccc1F)Nc1ccc2c(c1)COC(c1ccccc1Br)O2 (centres unmarked) [Example 87] | 40 to 69 | 0.0029 % active ingredient in spray | 
O=C(NC(=O)c1c(F)cccc1F)Nc1ccc2c(c1)OC(c1ccc(F)cc1F)O2 (centres unmarked) [Example 135] | 40 to 69 |  | 
O=C(NC(=O)c1c(F)cccc1F)Nc1ccc2c(c1)COC(c1ccccc1C(F)(F)F)S2 (centres unmarked) [Example 112] | 40 to 69 |  | 
O=C(NC(=O)c1c(F)cccc1F)Nc1ccc2c(c1)COC(c1c(Cl)cccc1Cl)S2 (centres unmarked) [Example 113] | 40 to 69 |  | 70 to 100
O=C(NC(=O)c1c(F)cccc1F)Nc1ccc2c(c1)CSC(c1ccc(Cl)cc1Cl)O2 (centres unmarked) [Example 98] | 40 to 69 |  | 
